Measured values from US20250152552A1, “CANCER-CELL PROLIFERATION INHIBITOR AND CANCER-CELL-PROLIFERATION INHIBITION ENHANCER” (KYUSHU UNIVERSITY, NATIONAL UNIVERSITY CORPORATION, priority 2022, published 2025).

Columns and labels:
[1] = system: MC38 mouse colon cancer cell line; experiment: Administration of EGC-M5 alone, subcutaneous MC38 tumor growth in mice (Comparative Example); type: in vivo; conditions: 16 days after transplantation; EGC-M5 5, 10, 20 and 30 mg/kg b.w. i.p. daily; vs control group, Tukey test
Procedure: After preparatory rearing, MC38 mouse colon cancer cell line was transplanted subcutaneously into the 6-weeks-old male C57BL/6 mice at an amount of 5.0×10^5 cells/mouse. Each group had 8 mice. EGC-M5 was dissolved in the PBS buffer containing 10% DMSO. 200 μL of EGC-M5 solution at a dose of 5 mg, 10 mg, 20 mg, and 30 mg/kg b.w. was intraperitoneally administered to the mice daily starting on day 4 after transplantation. The tumor volume was measured with the vernier calipers, and the growth of the tumor was evaluated with time.
Regarding to the mean (Mean) and the standard error (S.E.) of the tumor volume (natural logarithm) 16 days after transplantation, the significant difference between the control group (Control group) and the EGC-M5 administration group was assessed by Tukey's Multiple Comparison test.

[2] = mouse, oral administration; Biol. Pharm. Bull, 42, 212-221, 2019; cited from earlier work

SMILES: O=C1CC[C@H](Cc2cc(O)cc(O)c2)O1 [EGC-M5, (R)-5-(3,5-dihydroxyphenyl)-γ-valerolactone]
- tumor volume (natural logarithm) [1]: no significant differences were observed in the tumor volume values
- conjugates detected in serum [2]: the sulfate conjugate and the glucuronic acid conjugate of the compound of 5-(3,5-dihydroxyphenyl)-γ-valerolactone are detected in the serum
